Assay results published in US20220257582A1, “TREATMENT FOR SYNUCLEINOPATHIES” (SUN PHARMA ADVANCED RESEARCH COMPANY LIMITED, priority 2019, published 2022).

Tested on: AAV1/2-mediated over-expression of human A53T alpha-synuclein (hA53T-aSYN) in the striatonigral region of female Sprague Dawley (SD) rats
Assay: AAV1/2 alpha synuclein rat model of synucleinopathy (neuroprotective potential)
Type: in vivo
Details: Day 2 to Day 42; for Striatal dopamine levels, operated vs non-operated sides: FIG. 3; for Nigral TH+ve cell counts (operated side): TH+ve neurons in the striatonigral region compared to empty AAV1/2 control animals: immunohistochemistry and stereological cell counting, FIG. 1; for Striatal TH OD (operated vs non-operated sides): FIG. 2
Experimental: Compound I was evaluated in a adeno-associated virus (AAV) AAV1/2 alpha synuclein rat model based upon AAV1/2-mediated delivery and over-expression of human A53T alpha-synuclein (hA53T-aSYN) in the striatonigral region of the midbrain of female Sprague Dawley (SD) rats (Koprich et al, PLoS One. 7; 6(3):e17698, 2011). The study was designed to assess the ability of Compound I to protect dopaminergic neurons from viral vector mediated over-expression of aSYN leading to neurodegeneration in rat model. This model is typically used as a model for aSYN-induced Parkinsonism, but may serve as a model for aSYN-induced neuronal loss in general. AAV1/2 hA53T-aSYN (a viral vector delivering the capability to express human A53T mutant aSYN), or the control AAV1/2 empty vector, was injected stereotactically and unilaterally, into the striatal region of the midbrain. Rats were treated orally with Compound I (melt extrusion suspension), once daily, to provide equivalent doses of Compound I at 15, 30 and 45 mg/kg.
AAV1/2 hA53T-aSYN or empty AAV1/2 vector was administered sterotactically and unilaterally into the right striatal region on Day 1. Starting on Day 2 and continuing daily until Day 42, animals were fasted for 6 hr prior to oral administration of Compound I or vehicle (placebo). Food was reintroduced 60 minutes later. A total of 5 groups of animals, each group N=12, were employed.
Animals were killed for post-mortem assessments on Day 43, at least 18 h after last administration of Compound I or vehicle. Brains were removed along with the terminal blood collection.
As a consequence of localized synucleinopathy caused by the AAV1/2-encoded hA53T aSYN at or near the site of injection, tyrosine hydroxylase (TH)-expressing dopaminergic neurons in the affected striatonigral area degenerate (Koprich et al., PLoS One, 7; 6(3):e17698, 2011). Number of tyrosine hydroxylase positive (TH^+ve) cells within the striatonigral region of the right side of the brain (injected side), were assessed using immunohistochemistry and stereological cell counting. Tyrosine hydroxylase is a critical enzyme involved in dopamine biosynthesis and thus, its presence can be used as a marker of live neurons capable of producing dopamine.

In the case of `Cc1ccc(C(=O)NNC(=O)c2c(C)cccc2Cl)cc1C#Cc1cnc2ccccc2c1` [Compound I], the “Striatal dopamine levels, operated vs non-operated sides” value (15 mg/kg oral once daily) is reported as “failed to restore the dopamine biosynthetic capability”, the “Nigral TH+ve cell counts (operated side): TH+ve neurons in the striatonigral region compared to empty AAV1/2 control animals” value (15 mg/kg oral once daily) is reported as “significant reduction (p<0.05)” and the “Striatal TH OD (operated vs non-operated sides)” value (30 mg/kg oral once daily) is reported as “significant neuroprotective effect”. For the same compound, the “Striatal dopamine levels, operated vs non-operated sides” value (30 mg/kg oral once daily) was “failed to restore the dopamine biosynthetic capability”, the “Nigral TH+ve cell counts (operated side): TH+ve neurons in the striatonigral region compared to empty AAV1/2 control animals” value (30 mg/kg oral once daily) was “significant reduction (p<0.05)” and the “Striatal TH OD (operated vs non-operated sides)” value (45 mg/kg oral once daily) was “significant neuroprotective effect”. For the same compound, the “Striatal dopamine levels, operated vs non-operated sides” value (45 mg/kg oral once daily) was “still lower than that from its left counterpart” and the “Nigral TH+ve cell counts (operated side): TH+ve neurons in the striatonigral region compared to empty AAV1/2 control animals” value (45 mg/kg oral once daily) was “did not show significant reduction (p>0.05)”.
